One data set deals with recombinant NCED. The conditions noted are these: read-out: Ki, reversible competitive inhibitor of recombinant NCED; cited from earlier work.
In the next data set the target is AtNCED3 (Arabidopsis thaliana, UniProt Q9LRR7). Conditions: 100 μM; cited from earlier work.
Another data set deals with AtCCD1 (Arabidopsis thaliana, UniProt O65572). Conditions: 100 μM; cited from earlier work.
Another data set has as its system whole Arabidopsis plants. As to the kind of experiment: Shoot branching in whole Arabidopsis plants grown in agar. It is filed as in vivo. Conditions: for unintended effects on whole Arabidopsis plants: applied to whole plants; for branching phenotype of whole plants (in words): plants grown under sterile conditions in agar. The method, then:
Branching phenotypes of Arabidopsis plants grown in agar media for 45 days supplemented with inhibitor D6. Images are shown: (a) Col-0 (WT) without inhibitor; (b) max3-9 mutant without inhibitor; (c) Col-0 with 100 μM D6. The numbers (d) of rosette branches were quantified. Error bars represent standard error of the mean, n=6 to 12.
Stimulation of shoot branching in whole Arabidopsis plants—Inhibitors were also applied to Arabidopsis whole plants grown under sterile conditions in agar. […] Inhibitor treated plants were intermediate (mean of approximately 2 branches) and so partially mimicked max3-9 (FIG. 6d).

For a further data set, the target named is T1, LeNCED1 (Solanum lycopersicum, UniProt O24023).
T1 construct: made in house; host or cells: E. coli Rosetta (DE3); crude cell-free extract
T1 sequence (O24023 17-605): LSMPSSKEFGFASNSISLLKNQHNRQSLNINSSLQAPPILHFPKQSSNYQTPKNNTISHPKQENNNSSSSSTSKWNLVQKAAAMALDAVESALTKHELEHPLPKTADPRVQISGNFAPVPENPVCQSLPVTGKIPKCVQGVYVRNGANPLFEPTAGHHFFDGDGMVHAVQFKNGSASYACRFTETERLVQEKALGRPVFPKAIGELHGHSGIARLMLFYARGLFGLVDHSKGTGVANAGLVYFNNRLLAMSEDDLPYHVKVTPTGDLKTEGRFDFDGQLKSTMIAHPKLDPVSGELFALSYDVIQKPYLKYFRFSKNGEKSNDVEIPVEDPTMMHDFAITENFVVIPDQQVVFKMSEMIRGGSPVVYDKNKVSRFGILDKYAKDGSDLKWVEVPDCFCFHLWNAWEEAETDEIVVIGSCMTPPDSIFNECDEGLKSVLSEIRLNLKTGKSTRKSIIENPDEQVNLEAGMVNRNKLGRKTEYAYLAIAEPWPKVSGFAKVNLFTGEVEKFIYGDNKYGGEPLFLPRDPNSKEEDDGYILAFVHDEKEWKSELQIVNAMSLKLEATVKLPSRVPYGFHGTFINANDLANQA
The experiment in a line: In vitro NCED enzyme assay (recombinant LeNCED1 cell-free extract, HPLC, 9′-cis-neoxanthin substrate). It is filed as biochemical, tomato. As for the experimental part: In vitro NCED enzyme assay—We over-expressed LeNCED1 in E. coli, as an N-terminal His6-fusion protein (supplemental methods). Cell-free extract containing recombinant LeNCED1 was prepared in 100 mM bis-tris buffer (pH 6.7). 15 μl extract was pre-activated by addition of iron(II) sulphate (20 mM, 1 μl) and ascorbic acid (20 mM, 1 μl) on ice for 2 min, prior to use. This aliquot of enzyme was then added to an assay (150 μl total volume) containing 100 mM bis-tris buffer (pH 6.7), 0.05% v/v Triton X-100, 1.0 mg/ml catalase, and 3 μg 9′-cis-neoxanthin. The 9′-cis-neoxanthin substrate was prepared as described in supplemental methods. The enzyme assay was incubated for 15 min in the dark at 20° C. Water (700 μl) was then added, and the products extracted with ethyl acetate (3×1 ml). The organic solvent was removed at reduced pressure, the residue was dissolved in methanol (200 μl), and then 100 μl was injected onto a Phenomenex C18 reverse phase HPLC column, and a gradient of 5-10% methanol in acetonitrile/0.05% triethylamine was applied at 0.5 ml/min over 20 min, detecting at 440 nm. NCED inhibition assays contained 1-100 μM inhibitor; inhibition was calculated from the product formation after 15 min, compared to a control assay with no inhibitor present.
(§1) For the production of cell-free extracts of LeCCD1a and LeNCED1, cultures were grown to an OD of 0.6 at 37° C., then isopropyl β-D-1-thiogalactopyranoside (IPTG) was added to 0.2 mM and the cultures grown overnight at 20° C. The cells (200 ml cultures) were harvested by centrifugation (5000 rpm, 10 min) and the pellet re-suspended in 4 ml PBS, 0.1% Triton-X 100. Lysozyme was added to a final concentration of 25 μg ml^−1 and the solution incubated at room temperature for 15 min before sonication (3×30 s at 18Ω) on ice. The lysate was then centrifuged (13000 rpm, 15 min, 4° C.) and the supernatant used for the assay.
(§2) Specificity of inhibition in vitro for tomato genes LeNCED1 and LeCCD1a—In order to screen the inhibitors against enzymes which cleave carotenoids at the 9,10 position, we used the recombinant tomato LeCCD1a protein (44), because this type of enzyme can be studied using an in vitro colourimetric assay with β-apo-8′-carotenal as substrate (37). To establish the specificity of the inhibitors, they were also tested against the tomato LeNCED1 recombinant protein which cleaves 9-cis carotenoids at the 11,12 position (45). For this enzyme, the cleavage reaction was monitored by C18 reverse phase HPLC, using 9′-cis-neoxanthin as substrate.

The subject of the next data set is SP12 tomato seeds. As to the kind of experiment: Germination assay, SP12 tomato seed over-expressing LeNCED1. The conditions noted are these: for stimulation of germination of SP12 seeds: compounds D1 to D7 tested, 1% DMSO. The data set is classed as in vivo, Solanum lycopersicum. An excerpt: (§3) Seeds used were “wild-type” tomato (Solanum lycopersicum cv. Ailsa craig near-isogenic line containing the Tm2^a tobacco mosaic virus resistance gene). In addition, we used transgenic tomato seed (Solanum lycopersicum cv. Ailsa craig) transformed with a construct designed to over-express the gene LeNCED1, encoding 9-cis-epoxycarotenoid dioxygenase. These transgenic seeds are known as D9 [Thompson, A. J., et al., Ectopic expression of a tomato 9-cis-epoxycarotenoid dioxygenase gene causes over-production of abscisic acid. Plant Journal, 2000. 23(3): p. […]], but were later renamed as SP12 [Thompson, A. J., et al., Regulation and manipulation of ABA biosynthesis in roots. Plant Cell and Environment, 2007. 30: p. […] Plant Journal, 2000. 23(3): p. 363-74.5].
Each assay consisted of a 10 cm vented Petri dish containing an 8.5 cm diameter circle of Whatman Grade 1 filter paper (Whatman International Ltd, Maidstone, England) soaked in 1 ml of test solution. Seeds were surface sterilized with 30% household bleach for 30 mins, rinsed in distilled water, and then 20 seeds were placed on the filter paper in each Petri dish. The Petri dishes were incubated at high relative humidity (>95%) at 25° C. in the dark. Seed germination, defined as visible emergence of the radicle, was scored daily. Replicate plates were used for each chemical treatment.
Hydroxamic acids were dissolved in dimethylsulphoxide (DMSO), and aqueous test solutions were prepared such that the final concentration of DMSO was 1% v/v. Control solution consisted of 1% v/v DMSO in water. Norflurazon was prepared as a stock solution at 20 mg ml^−1 in ethanol, and then diluted with water to a final concentration of 5 mg l^−1, with ethanol present at 0.025% v/v.
Transgenic SP12 tomato seeds we created by the inventors; these seeds have high levels of ABA and increased dormancy [Thompson, A. J., et al., Ectopic expression of a tomato 9-cis-epoxycarotenoid dioxygenase gene causes over-production of abscisic acid. Plant Journal, 2000. 23(3): p. 363-74 and Thompson, A. J., et al., Regulation and manipulation of ABA biosynthesis in roots. Plant Cell and Environment, 2007. 30: p. 67-78].

The target in the next data set is LeCCD1a (Solanum lycopersicum, UniProt Q6E4P5). As to the kind of experiment: In vitro LeCCD1a enzyme assay (recombinant cell-free extract, colourimetric, apo-8′-carotenal substrate). Conditions: for inhibition at 100 µM: read-out: LeCCD1a (9,10/9′,10′) Inhibition @ 100 μM (%); for IC50: E. coli cell extract with recombinant CCD, read-out: LeCCD1a (9,10/9′,10′) IC50. The data set is classed as biochemical, tomato (Solanum lycopersicum). As for the experimental part:
In vitro LeCCD1a enzyme assay—We over-expressed LeCCD1a in E. coli, as a GST-fusion protein (supplemental methods). The in vitro assay of LeCCD1a was based on reported methods (37), and was carried out in a 200 μl total volume in a 96-well microtitre plate, with the signal detected at 485 nm. To prepare substrate solution for each assay, 5 μl of 4% (w/v in ethanol) apo-8′-carotenal (Sigma) was mixed with 25 μl of 4% (w/v in ethanol) β-octylglucoside (Sigma), the ethanol was then evaporated under nitrogen, and the residue dissolved in 150 μl PBS buffer containing 10 mM sodium ascorbate by incubation at 20° C. for 30 min. 50 μl of cell-free extract containing recombinant LeCCD1a was added, and the reactions monitored over 30 min at 20° C.
as §1, §2

For data set [1], the system named is wild-type tomato seeds (cv. Ailsa Craig). The experiment in a line: Germination assay, wild-type tomato seed. Conditions: dose-dependent; FIG. 9. It is filed as in vivo, Solanum lycopersicum.
Text: as §3
Each assay consisted of a 10 cm vented Petri dish containing an 8.5 cm diameter circle of Whatman Grade 1 filter paper (Whatman International Ltd, Maidstone, England) soaked in 1 ml of test solution. Seeds were surface sterilized with 30% household bleach for 30 mins, rinsed in distilled water, and then 20 seeds were placed on the filter paper in each Petri dish. The Petri dishes were incubated at high relative humidity (>95%) at 25° C. in the dark. Seed germination, defined as visible emergence of the radicle, was scored daily. Replicate plates were used for each chemical treatment. […]

Data set [2] deals with abscisic acid production in planta. Conditions: 50-100 μM concentration; cited from earlier work.
For data set [3], the system named is excised Arabidopsis nodes. The experiment in a line: Axillary bud outgrowth assay in Arabidopsis stem sections. It is filed as in vivo. The conditions noted are these: 100 μM inhibitor, 1 μM NAA; Col-0. The method, then: Axillary bud outgrowth assay in Arabidopsis stein sections—The assays were performed essentially as described (40) with the following modifications. Small Petri dishes (50 mm diameter, 20 mm depth) were filled with 10 ml of ATS (39) supplemented with 1% agar and 1% sucrose. Inhibitors and α-naphthalene acetic acid (NAA) were added to the agar before pouring to give 100 μM and 1 μM, respectively. Thus, when the central strip was cut out of the agar, both the apical and basal media contained both NAA and inhibitor. Any nodes in which the apical end had curled out of the media or which bud length was less than 2 mm at the end of the experiment were discounted. Measurement of the shoot length was performed every 24 hours. For each assay a logistic curve was fitted using Genstat (10th edition, VSN international) with the fitcurve directive and the lag phase was calculated by extrapolating the linear part of the curve and the initial plateau (see supplementary methods). The x value of where these two lines intersected represented the lag phase.
A logistic curve, y=A+C/(1+e^−B(t−m)), was fitted to the data for each shoot using GenStat (10th edition). The lag phase was then calculated using the equation m−(2/B) which effectively gave the t value (time) of the intercept of the two extrapolated lines from the linear part of the curve and the initial plateau.
Stimulation of shoot branching in Arabidopsis stem sections by application of inhibitor—Auxin inhibits the outgrowth of axillary buds in wild-type Arabidopsis plants. In the AtCCD7 and AtCCD8 null mutants (max3 and max4, respectively) the response to auxin is reduced, presumably due to a block in formation of an apocarotenoid hormone (recently shown (17,18) to be strigolactone or a related compound) that suppresses branching (19), and axillary buds extend earlier, leading to formation of side branches. An in vitro assay was previously developed in which the growth of axillary buds from isolated sections of Arabidopsis stem was used to assess max mutants (40). […]

Entries after “also recorded” stand apart in the source; their conditions may differ.

LeCCD1a, sequence (Q6E4P5 1-545): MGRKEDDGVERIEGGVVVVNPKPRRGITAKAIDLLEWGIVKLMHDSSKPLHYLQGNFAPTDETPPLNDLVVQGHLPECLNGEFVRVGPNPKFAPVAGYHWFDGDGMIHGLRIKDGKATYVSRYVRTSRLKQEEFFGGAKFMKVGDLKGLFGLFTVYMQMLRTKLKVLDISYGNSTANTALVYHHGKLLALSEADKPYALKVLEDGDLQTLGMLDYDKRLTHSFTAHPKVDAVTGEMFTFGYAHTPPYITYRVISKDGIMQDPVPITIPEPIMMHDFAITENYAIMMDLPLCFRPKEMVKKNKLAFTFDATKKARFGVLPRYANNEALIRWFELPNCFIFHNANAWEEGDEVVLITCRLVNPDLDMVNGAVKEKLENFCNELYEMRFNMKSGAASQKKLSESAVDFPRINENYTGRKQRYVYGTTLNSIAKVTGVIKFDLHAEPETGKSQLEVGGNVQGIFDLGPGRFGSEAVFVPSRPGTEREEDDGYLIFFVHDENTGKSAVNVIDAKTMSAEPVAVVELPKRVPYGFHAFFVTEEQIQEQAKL
AtNCED3, sequence (Q9LRR7 41-599): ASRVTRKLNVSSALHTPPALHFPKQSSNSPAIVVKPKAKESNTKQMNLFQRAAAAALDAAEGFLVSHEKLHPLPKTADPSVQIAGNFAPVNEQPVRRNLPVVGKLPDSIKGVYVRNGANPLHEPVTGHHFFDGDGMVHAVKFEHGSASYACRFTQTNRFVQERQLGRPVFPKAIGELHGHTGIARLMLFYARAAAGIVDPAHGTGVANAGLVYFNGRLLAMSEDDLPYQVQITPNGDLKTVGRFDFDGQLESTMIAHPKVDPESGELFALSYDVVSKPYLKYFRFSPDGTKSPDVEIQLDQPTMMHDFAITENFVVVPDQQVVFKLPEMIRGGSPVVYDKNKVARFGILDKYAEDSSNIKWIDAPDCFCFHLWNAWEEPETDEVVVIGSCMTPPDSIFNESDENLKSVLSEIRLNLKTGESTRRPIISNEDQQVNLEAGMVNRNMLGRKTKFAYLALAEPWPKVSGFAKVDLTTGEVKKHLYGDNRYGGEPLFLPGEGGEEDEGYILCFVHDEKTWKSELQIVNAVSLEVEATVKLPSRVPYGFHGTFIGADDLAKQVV
AtCCD1, sequence (O65572 whole entry): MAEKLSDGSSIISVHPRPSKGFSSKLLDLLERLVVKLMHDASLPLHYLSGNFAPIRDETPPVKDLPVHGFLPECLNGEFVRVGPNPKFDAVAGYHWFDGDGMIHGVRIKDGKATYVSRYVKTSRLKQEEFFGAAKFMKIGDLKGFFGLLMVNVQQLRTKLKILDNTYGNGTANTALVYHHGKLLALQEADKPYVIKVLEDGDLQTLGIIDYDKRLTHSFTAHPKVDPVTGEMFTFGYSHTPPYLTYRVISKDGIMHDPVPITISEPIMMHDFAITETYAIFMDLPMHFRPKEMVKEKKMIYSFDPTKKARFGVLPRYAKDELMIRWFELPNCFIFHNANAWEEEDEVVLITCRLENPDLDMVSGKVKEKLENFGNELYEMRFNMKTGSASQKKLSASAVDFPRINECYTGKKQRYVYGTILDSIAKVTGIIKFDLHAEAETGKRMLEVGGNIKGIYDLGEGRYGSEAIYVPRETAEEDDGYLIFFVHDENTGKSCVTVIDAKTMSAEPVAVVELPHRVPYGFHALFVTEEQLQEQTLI

As to abamineSG, the Ki (commonly the dissociation constant of the complex between target and ligand, obtained from inhibition or displacement) at recombinant NCED was 18.5 µM. The “inhibition of AtNCED3” value at AtNCED3 is 78%. Besides, the “inhibition of AtCCD1” value on AtCCD1 is no more than 20%.

With `COc1ccc(CC(=O)N(O)Cc2ccc(F)cc2)cc1` [Compound D4, N-(4-fluorobenzyl)-4-methoxyphenylacetyl hydroxamic acid], in the data set with whole Arabidopsis plants, the “unintended effects on whole Arabidopsis plants” value is on record as “without negative unintended effects on whole plants” and the “branching phenotype of whole plants (in words)” value was “bushy appearance”. Besides, the “inhibition of LeNCED1 in vitro (in words)” value at LeNCED1 is given as “greatest inhibition of NCED in vitro”. Further, the “plant development following application to seeds” value in the data set on SP12 tomato seeds (2 mM) was “Some delay in development”. The “stimulation of germination of SP12 seeds” value in the data set on SP12 tomato seeds is reported as “most active compounds in stimulating germination; also recorded: promoted germination of SP12 seeds”. In the data set with SP12 tomato seeds (concentrations <1 mM), the “plant development following application to wild-type or SP12 seeds” value is recorded as “Normal plant development”. The inhibition at 100 µM on LeCCD1a was greater than 95%. For the same compound, the “germination of wild-type tomato seeds” value in data set [1] was “germination of these seeds was also promoted”.

Regarding `COC(=O)CN(C/C=C/c1ccc(OC)c(OC)c1)Cc1ccc(F)cc1` [Abamine, reference compound], at recombinant NCED, the Ki is 39 µM. In addition, the “abscisic acid production in planta” value in data set [2] is recorded as “inhibited abscisic acid production in planta”. Also, at LeNCED1 (100 μM inhibitor, E. coli cell extract with recombinant CCD), the “LeNCED1 (11,12) Inhibition @ 100 μM (%)” value came out at 20%. The IC50 on LeCCD1a is 210 µM.

In the case of `O=C(Cc1ccc2c(c1)OCO2)N(O)Cc1ccc(F)cc1` [Compound D7, N-(4-fluorobenzyl)-3,4-methylenoxyphenylacetyl hydroxamic acid], the “inhibition of LeNCED1 in vitro (in words)” value at LeNCED1 is listed as “greatest inhibition of NCED in vitro”. In the data set on SP12 tomato seeds, the “stimulation of germination of SP12 seeds” value was “most active compounds in stimulating germination”. Besides, the inhibition at 100 µM on LeCCD1a was greater than 95%.

For `O=C(Cc1ccc(O)cc1)N(O)Cc1ccccc1` [Compound D1, N-benzyl-4-hydroxyphenylacetyl hydroxamic acid], in the data set with whole Arabidopsis plants, the “unintended effects on whole Arabidopsis plants” value is “grew normally” and the “branching phenotype of whole plants (in words)” value was “without an increase in branching”. The “advancement of the timing of bud outgrowth in wild-type” value in data set [3] was “one”. Further, at LeCCD1a, the “inhibition of LeCCD1 in vitro (in words)” value is on record as “good inhibitors of the 9,10 enzymes in vitro”, the IC50 lay within 0.8 to 0.9 µM and the inhibition at 100 µM was greater than 95%.
